Several values for one entry are separate records, joined by “and”; a condition that tells them apart may be missing. Equal entries are not always repeated. Activity calls are given as the source filed them. No cut-off for these calls is given here.
Tests used:
Mus musculus [1] = experiment: Anticonvulsant activity in Kunming mouse assessed as reduction in Sc3-MP-induced clonic seizure rate at 300 mg/kg, ip administered 0.5 hrs before Sc3-MP stimulation relative to control; type: functional; set-up: scale not given: the % may be the effect or the level left
Mus musculus [2] = experiment: Anticonvulsant activity in Kunming mouse assessed as reduction in Sc3-MP-induced tonic seizure rate at 300 mg/kg, ip administered 0.5 hrs before Sc3-MP stimulation relative to control; type: functional; set-up: scale not given: the % may be the effect or the level left
Mus musculus [3] = experiment: Anticonvulsant activity in Kunming mouse assessed as MES-induced hind limb extension at 100 mg/kg, ip administered 0. 5 to 2 hrs before MES stimulation; type: functional, organism-based
[4] = Neurotoxicity against Kunming mouse assessed as time remained in rod at 100 mg/kg, ip administered 0.5 to 2 hrs by rotarod test; type: toxicity, organism-based; conditions: in vivo
Mus musculus [5] = experiment: Anticonvulsant activity in Kunming mouse assessed as MES-induced hind limb extension at 50 mg/kg, ip administered 0.5 to 4 hrs before MES stimulation relative to control; type: functional
Mus musculus [6] = experiment: Anticonvulsant activity in Kunming mouse assessed as MES-induced hind limb extension at 50 mg/kg, ip administered 0.5 and 2 hrs before MES stimulation relative to control; type: functional
Mus musculus [7] = experiment: Anticonvulsant activity in Kunming mouse assessed as reduction in ScPTZ-induced seizure at 300 mg/kg, ip administered 0.25 to 2 hrs before ScPTZ stimulation relative to control; type: functional; set-up: scale not given: the % may be the effect or the level left
Mus musculus [8] = experiment: Anticonvulsant activity in Kunming mouse assessed as reduction in ScPTZ-induced seizure at 100 mg/kg, ip administered 0.25 to 2 hrs before ScPTZ stimulation relative to control; type: functional
Mus musculus [9] = experiment: Anticonvulsant activity in Kunming mouse assessed as reduction in ScPTZ-induced seizure at 100 mg/kg, ip administered 0.5 hrs before ScPTZ stimulation relative to control; type: functional; set-up: scale not given: the % may be the effect or the level left
Mus musculus [10] = experiment: Anticonvulsant activity in Kunming mouse assessed as reduction in ScPTZ-induced seizure at 100 mg/kg, ip administered 1 hr relative to control; type: functional; set-up: scale not given: the % may be the effect or the level left
Mus musculus [11] = experiment: Anticonvulsant activity in Kunming mouse assessed as reduction in ScPTZ-induced clonic seizure at 300 mg/kg, ip administered 0.5 hrs before ScPTZ stimulation relative to control; type: functional; set-up: scale not given: the % may be the effect or the level left
Mus musculus [12] = experiment: Anticonvulsant activity in Kunming mouse assessed as reduction in ScPTZ-induced clonic seizure at 100 mg/kg, ip administered 0.5 hrs before ScPTZ stimulation relative to control; type: functional; set-up: scale not given: the % may be the effect or the level left
Mus musculus [13] = experiment: Anticonvulsant activity in Kunming mouse assessed as reduction in ScPTZ-induced tonic seizure rate at 300 mg/kg, ip administered 0.5 hrs before ScPTZ stimulation relative to control; type: functional; set-up: scale not given: the % may be the effect or the level left
Mus musculus [14] = experiment: Anticonvulsant activity in Kunming mouse assessed as reduction in ScPTZ-induced tonic seizure rate at 100 mg/kg, ip administered 0.5 hrs before ScPTZ stimulation relative to control; type: functional; set-up: scale not given: the % may be the effect or the level left
Mus musculus [15] = experiment: Anticonvulsant activity in Kunming mouse assessed as reduction in Sc3-MP-induced mortality rate at 300 mg/kg, ip administered 0.5 hrs before Sc3-MP stimulation relative to control; type: functional; set-up: scale not given: the % may be the effect or the level left
Mus musculus [16] = experiment: Anticonvulsant activity in ip dosed Kunming mouse assessed as MES-induced hind limb extension administered 0.5 hrs before MES stimulation; type: functional
Mus musculus [17] = experiment: Anticonvulsant activity in ip dosed Kunming mouse assessed as reduction in ScPTZ-induced seizure administered 0.5 hrs before ScPTZ stimulation; type: functional
Mus musculus [18] = experiment: Anticonvulsant activity in Kunming mouse assessed as reduction in Sc3-MP-induced seizure ip dosed measured at 0.5 hrs before Sc3-MP stimulation; type: functional
Mus musculus [19] = experiment: […] activity in ip dosed Kunming mouse assessed as reduction in formalin-induced paw licking administered 0.5 hrs before formalin stimulation; type: functional
[20] = Neurotoxicity against ip dosed Kunming mouse assessed as time remained in rod measured at 0.5 hrs by rotarod test; type: toxicity, organism-based; conditions: in vivo
[21] = Protective index, ratio of TD50 for neurotoxicity against ip dosed Kunming mouse assessed as time remained in rod measured at 0.5 hrs by rotarod test to ED50 for anticonvulsant activity in ip dosed Kunming mouse assessed as MES-induced hind limb extension administered 0.5 hrs; type: toxicity, organism-based; conditions: in vivo, read-out: PI
[22] = Protective index, ratio of TD50 for neurotoxicity against ip dosed Kunming mouse assessed as time remained in rod measured at 0.5 hrs by rotarod test to ED50 for anticonvulsant activity in ip dosed Kunming mouse assessed as reduction in ScPTZ-induced seizure administered 0.5 hrs before ScPTZ stimulation; type: toxicity, organism-based; conditions: in vivo, read-out: PI
[23] = Protective index, ratio of TD50 for neurotoxicity against ip dosed Kunming mouse assessed as time remained in rod measured at 0.5 hrs by rotarod test to ED50 for anticonvulsant activity in ip dosed Kunming mouse assessed as reduction in Sc3-MP-induced seizure administered 0.5 hrs before Sc3-MP stimulation; type: toxicity, organism-based; conditions: in vivo, read-out: PI
[24] = Protective index, ratio of TD50 for neurotoxicity against ip dosed Kunming mouse assessed as time remained in rod measured at 0.5 hrs by rotarod test to ED50 for […] activity in ip dosed Kunming mouse assessed as reduction in formalin-induced paw licking administered 0.5 hrs before formalin stimulation; type: toxicity, organism-based; conditions: in vivo, read-out: PI
Homo sapiens [25] = species: Homo sapiens; experiment: Inhibition of human LDH1 at 0.5 mM using sodium pyruvate as substrate by UV-VIS spectrophotometry method relative to control
Homo sapiens [26] = species: Homo sapiens; experiment: Inhibition of human LDH5 at 0.5 mM using sodium pyruvate as substrate by UV-VIS spectrophotometry method relative to control
Mus musculus [27] = experiment: Anticonvulsant activity in Kunming mouse assessed as MES-induced hind limb extension at 100 mg/kg, ip administered 0. 5 to 4 hrs before MES stimulation relative to control; type: functional
Mus musculus [28] = experiment: Anticonvulsant activity in Kunming mouse assessed as MES-induced hind limb extension at 100 mg/kg, ip administered 4 hrs before MES stimulation; type: functional, organism-based
Mus musculus [29] = experiment: Anticonvulsant activity in Kunming mouse assessed as reduction in ScPTZ-induced mortality rate at 300 mg/kg, ip administered 0.5 hrs before ScPTZ stimulation relative to control; type: functional; set-up: scale not given: the % may be the effect or the level left
Homo sapiens [30] = species: Homo sapiens; experiment: Inhibition of human LDH1 at 0.5 mM using sodium pyruvate as substrate measured for 60 sec for every 5 mins by LC/MS-MS analysis
Homo sapiens [31] = species: Homo sapiens; experiment: Inhibition of human LDH5 at 0.5 mM using sodium pyruvate as substrate measured for 60 sec for every 5 mins by LC/MS-MS analysis
Mus musculus [32] = experiment: Anticonvulsant activity in Kunming mouse assessed as MES-induced hind limb extension at 100 mg/kg, ip administered 0. 5 hrs before MES stimulation relative to control; type: functional
Mus musculus [33] = experiment: Anticonvulsant activity in Kunming mouse assessed as MES-induced hind limb extension at 100 mg/kg, ip administered 3 hrs before MES stimulation; type: functional, organism-based

SMILES | Activity (Mus musculus [1]) [%] | Activity (Mus musculus [2]) [%] | Activity (Mus musculus [3]) | Activity [4] | Activity (Mus musculus [5]) [%] | Activity (Mus musculus [6]) [%] | Activity (Mus musculus [7]) [%] | Activity (Mus musculus [8]) | Activity (Mus musculus [11]) [%] | Activity (Mus musculus [12]) [%] | Activity (Mus musculus [13]) [%] | Activity (Mus musculus [14]) [%] | ED50 (Mus musculus [16]) | ED50 (Mus musculus [17]) | ED50 (Mus musculus [18]) | ED50 (Mus musculus [19]) | TD50 at 0.5 h [20] | selectivity ratio at 0.5 h [21] | selectivity ratio at 0.5 h [22] | selectivity ratio at 0.5 h [23] | also measured
COc1cc(OC)c(OC)cc1/C=C/COC(=O)/C=C/c1ccc(OC)c(OC)c1 | 100 | 75 | Active | Non-Toxic | 50 | 50 | 50 | inactive | 100 | 100 | 0 | 100 | 58.1 mg/kg and 140 µmol/kg | 173 mg/kg and 418 µmol/kg | > 300 mg/kg and > 724 µmol/kg | 93.3 mg/kg and 225 µmol/kg | > 1000 mg/kg and > 2410 µmol/kg | > 17.2 | > 5.8 | 3.3 | Activity (Mus musculus [9]): 100%; Activity (Mus musculus [10]): 75%; Activity (Mus musculus [15]): 25%; selectivity ratio at 0.5 h [24]: > 10.7; inhibition (Homo sapiens [25]): Active; inhibition (Homo sapiens [26]): Active; Activity (Mus musculus [27]): 25 - 100%
COc1ccccc1/C=C/C(=O)OC/C=C/c1cc(OC)c(OC)cc1OC | 100 | 100 | Active | Non-Toxic | 50 | 75 | 50 | inactive | 100 | 100 | 50 | 100 | 39 mg/kg and 101 µmol/kg | 240 mg/kg and 625 µmol/kg | > 300 mg/kg and 780 µmol/kg | 113 mg/kg and 294 µmol/kg | > 1000 mg/kg and 2600 µmol/kg | > 25.6 | > 4.2 | 3.3 | Activity (Mus musculus [28]): Active; Activity (Mus musculus [29]): 25%; selectivity ratio at 0.5 h [24]: > 8.9; inhibition (Homo sapiens [25]): inactive; inhibition (Homo sapiens [26]): inactive; inhibition (Homo sapiens [30]): 2%; inhibition (Homo sapiens [31]): 2%; Activity (Mus musculus [32]): 100%; Activity (Mus musculus [27]): 25 - 100%
COc1cc(OC)c(OC)cc1/C=C/COC(=O)/C=C/c1ccc(F)cc1 | 100 | 75 | Active | Non-Toxic | 50 | 75 | 50 | inactive | 100 | 100 | 0 | 100 | 92.9 µmol/kg and 34.6 mg/kg | 167 mg/kg and 449 µmol/kg | > 300 mg/kg and > 806 µmol/kg | 43.4 mg/kg and 116 µmol/kg | > 2690 µmol/kg and > 1000 mg/kg | > 28.9 | > 5.9 | 5 | Activity (Mus musculus [28]): Active; Activity (Mus musculus [33]): Active; Activity (Mus musculus [9]): 100%; Activity (Mus musculus [10]): 75%; selectivity ratio at 0.5 h [24]: 23; inhibition (Homo sapiens [25]): < 5%; inhibition (Homo sapiens [26]): < 9%; inhibition (Homo sapiens [30]): 5%; inhibition (Homo sapiens [31]): 5%; Activity (Mus musculus [32]): 100%; Activity (Mus musculus [27]): 25 - 100%
